Test results published in ChEMBL document CHEMBL1201862, “PubChem BioAssay data set” (2004).
Counter-ions that a name gives are not always drawn.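 Assay format: 96-well plates, 48-hour exposure. GI50 is the concentration that inhibits growth by half.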 Active and inactive are the calls of the source. No stated cut-off is given here; in the data, active = GI50 up to about 1.1 µM and inactive = higher.

What was measured:
Experiment in all cases: growth of human tumour cells (NCI), 48 h
T47D = system: T47D
XF498 = system: XF498
SNB-78 = system: SNB-78
HOP-18 = system: HOP-18
M19-MEL = system: M19-MEL
DMS-114 = system: DMS-114
KM-20L2 = system: KM-20L2
LXFL 529 = system: LXFL 529
RXF 631 = system: RXF 631

## COc1ccc2c(c1)c1c3c(ccc4ncn2c43)N(CCN(C)C)CCN=1
T47D
  GI50: 1.52 µM (inactive)

## NS(=O)(=O)c1nnc(NS(=O)(=O)c2ccc(Cl)cc2)s1
T47D
  GI50: > 100 µM (inactive)

## CCOP(=O)(OCC)OC1c2[nH]cc(C(=O)OCc3ccccc3)c2-c2cc(C(=O)OC)[nH]c2C1OC (configuration not stated)
T47D
  GI50: 7.91 µM (inactive)

## O=[N+]([O-])c1ccc(CSC2=C(c3ccc(Cl)cc3)S/C(=C3\SC(SCc4ccc([N+](=O)[O-])cc4)=C(c4ccc(Cl)cc4)S3)S2)cc1
T47D
  GI50: > 100 µM (inactive)

## CC(O)CC(=O)CO[C@H]1[C@H](O)[C@@H](O)[C@@H](O)[C@@H]2NC(=O)c3c(cc4c(c3O)OCO4)[C@H]21 (some centres not stated)
T47D
  GI50: 0.0222 µM (active)

## O=C1C=C(c2ccccc2)O/C1=C\C(=O)c1ccc(Cl)cc1
T47D
  GI50: 23.3 µM (inactive)

## CC(C)N1CCC2(CC1)NNc1ncccc1-n1cccc12
XF498
  GI50: > 100 µM (inactive)
SNB-78
  GI50: > 100 µM (inactive)
HOP-18
  GI50: > 100 µM (inactive)
M19-MEL
  GI50: > 100 µM (inactive)
DMS-114
  GI50: > 100 µM (inactive)

## CC(C)(C)OC(=O)N1CC(C)(C)N2C(=O)C3(CCCO3)C12 (configuration not stated)
SNB-78
  GI50: > 100 µM (inactive)
KM-20L2
  GI50: > 100 µM (inactive)
HOP-18
  GI50: > 100 µM (inactive)
LXFL 529
  GI50: > 100 µM (inactive)
M19-MEL
  GI50: > 100 µM (inactive)
DMS-114
  GI50: > 100 µM (inactive)

## O=C1c2ccccc2C(=O)N1C/C=C/CO
SNB-78
  GI50: > 100 µM (inactive)
KM-20L2
  GI50: > 100 µM (inactive)
HOP-18
  GI50: > 100 µM (inactive)
LXFL 529
  GI50: > 100 µM (inactive)
M19-MEL
  GI50: > 100 µM (inactive)
DMS-114
  GI50: > 100 µM (inactive)

## CCOC(=O)CNC(=O)OCc1ccccc1
XF498
  GI50: > 100 µM (inactive)
SNB-78
  GI50: > 100 µM (inactive)
LXFL 529
  GI50: > 100 µM (inactive)
M19-MEL
  GI50: > 100 µM (inactive)
RXF 631
  GI50: > 100 µM (inactive)
DMS-114
  GI50: > 100 µM (inactive)

## CC(Oc1ccccc1Cl)C(=O)NN1C(=O)CC(=O)NC1=S (configuration not stated)
T47D
  GI50: 36.6 µM (inactive)

## Clc1ccc(-c2cn3c(nc4ccccc43)c(/C=C/c3ccco3)n2)cc1
T47D
  GI50: 22.9 µM (inactive)

## COC1OC2COC1(OCc1ccccc1)C1OC(C)(C)OC21 (configuration not stated)
T47D
  GI50: > 100 µM (inactive)

## CCN(CC)CCCNc1nc2ccccc2[n+]([O-])n1
T47D
  GI50: > 100 µM (inactive)

## CN(C)C(=O)Nc1cc2c3c(c1)CCCN3CCC2
T47D
  GI50: > 10 µM (inactive)

## C1=CC=C2NCCC/N=C3/C=CC=CC=C3NCCC/N=C\2C=C1
XF498
  GI50: > 100 µM (inactive)
SNB-78
  GI50: > 100 µM (inactive)
KM-20L2
  GI50: > 100 µM (inactive)
LXFL 529
  GI50: > 100 µM (inactive)
M19-MEL
  GI50: > 100 µM (inactive)
RXF 631
  GI50: > 100 µM (inactive)
DMS-114
  GI50: > 100 µM (inactive)

## Cc1cc2c(=O)cc(-c3ccc(Cl)cc3Cl)oc2c(C(=O)O)c1C
XF498
  GI50: > 100 µM (inactive)
SNB-78
  GI50: > 100 µM (inactive)
KM-20L2
  GI50: > 100 µM (inactive)
HOP-18
  GI50: > 100 µM (inactive)
LXFL 529
  GI50: > 100 µM (inactive)
DMS-114
  GI50: > 100 µM (inactive)

## Cc1ncc([N+](=O)[O-])n1CCNCCCCn1ccnc1[N+](=O)[O-]
T47D
  GI50: > 100 µM (inactive)

## Cn1c(=O)c2[nH]c(Nc3cccc(Cl)c3)nc2n(C)c1=O
T47D
  GI50: 2.86 µM (inactive)

## O=C1C(CN2CCCC2)CCC1CN1CCCC1 (configuration not stated)
T47D
  GI50: 17.4 µM (inactive)

## C/C(=C\COc1cc(O)c2c(c1)C(=O)c1cc(C)cc(O)c1C2=O)CCC1OC1(C)C (configuration not stated)
T47D
  GI50: 49.4 µM (inactive)

## CC(=O)Nc1ccc(C(=O)N2N=C(C)/C(=C/c3cccc([N+](=O)[O-])c3)C2=O)cc1
SNB-78
  GI50: > 100 µM (inactive)
HOP-18
  GI50: > 100 µM (inactive)
M19-MEL
  GI50: > 100 µM (inactive)
DMS-114
  GI50: > 100 µM (inactive)

## C=C1C(=O)OC2C3C(=C)[C@@H](OC(C)=O)CC3C(C)=CC(OC(=O)C(C)(O)C(C)OC(C)=O)[C@@H]12 (some centres not stated)
T47D
  GI50: 19.5 µM (inactive)

## COc1cc(/C=C2\[C@H]3c4c(c(OC)c(C)c(OC)c4OC)CC(C(=O)N2Cc2ccccc2)N3C)c(OC)c(C)c1OC
KM-20L2
  GI50: 20.3 µM (inactive)
HOP-18
  GI50: 23.7 µM (inactive)
LXFL 529
  GI50: 19.4 µM (inactive)
M19-MEL
  GI50: 17.4 µM (inactive)

## CN1N=C2c3ccccc3CC[C@H]2C1c1cccc(O)c1 (some centres not stated)
XF498
  GI50: > 100 µM (inactive)
KM-20L2
  GI50: > 100 µM (inactive)
LXFL 529
  GI50: 99.5 µM (inactive)
M19-MEL
  GI50: > 100 µM (inactive)
DMS-114
  GI50: > 100 µM (inactive)

## O=C1c2ccccc2-c2nc(-c3cccc([N+](=O)[O-])c3)nnc21
T47D
  GI50: 44.5 µM (inactive)

## O=C(CCc1cccc(O)c1)NCCc1ccc(O)cc1
T47D
  GI50: > 100 µM (inactive)

## CCCCCCCC[N+](C)(C)Cc1ccc(C[N+](C)(C)CCCCCCCC)cc1
SNB-78
  GI50: 44.3 µM (inactive)
KM-20L2
  GI50: 7.71 µM (inactive)
HOP-18
  GI50: > 100 µM (inactive)
LXFL 529
  GI50: 14.6 µM (inactive)
M19-MEL
  GI50: 31.3 µM (inactive)
RXF 631
  GI50: > 100 µM (inactive)
DMS-114
  GI50: 8.67 µM (inactive)

## O=C(O)CCCNS(=O)(=O)c1ccccc1
XF498
  GI50: 69.3 µM (inactive)
KM-20L2
  GI50: > 100 µM (inactive)
HOP-18
  GI50: > 100 µM (inactive)
LXFL 529
  GI50: > 100 µM (inactive)
M19-MEL
  GI50: > 100 µM (inactive)

## CC(=O)c1cc2c(s1)C(=O)c1ccccc1C2=O
T47D
  GI50: 4.42 µM (inactive)

## NC(=O)NC1NC(=O)NC1=O (configuration not stated) [ALLANTOIN]
T47D
  GI50: > 100 µM (inactive)

## CN1CCC(CN2c3ccccc3Sc3ccccc32)C1 (configuration not stated) [METHDILAZINE HYDROCHLORIDE]
T47D
  GI50: 15.8 µM (inactive)
